# Where a name gives a salt, the structure may show the parent alone.
# Molecular target: MCH receptor (Homo sapiens, UniProt Q99705)
# Experiment: FLIPR/FDSS6000 functional assay: intracellular Ca2+ changes evoked by MCH
# Assay type: cell-based
# Details: antagonist activity, 50 nM of MCH, [Ca2+]i by FLIPR or FDSS; read-out: IC50
# Description: Subsequently, a functional based assay was used to confirm the lead hits, referred to as FLIPR™ (the Fluorometric Imaging Plate Reader) and FDSS6000™ (Functional Drug Screening System). This assay utilized a non-endogenous, constitutively active version of the MCH receptor.
# The FLIPR and FDSS assays are able to detect intracellular Ca^2+ concentration in cells, which can be utilized to assess receptor activation and determine whether a candidate compound is an, for example, antagonist, inverse agonist or agonist to a Gq-coupled receptor. The concentration of free Ca^2+ in the cytosol of any cell is extremely low, whereas its concentration in the extracellular fluid and endoplasmic reticulum (ER) is very high. Thus, there is a large gradient tending to drive Ca^2+ into the cytosol across both the plasma membrane and ER. The FLIPR™ and FDSS6000™ systems (Molecular Devices Corporation, HAMAMATSU Photonics K.K.) are designed to perform functional cell-based assays, such as the measurement of intracellular calcium for high-throughput screening. The measurement of fluorescent is associated with calcium release upon activation of the Gq-coupled receptors.
# Fluorometric Imaging Plate Reader system was used to allow for rapid, kinetic measurements of intracellular fluorescence in 96 well microplates (or 384 well microplates). Simultaneous measurements of fluorescence in all wells can be made by FLIPR or FDSS6000™ every second with high sensitivity and precision. These systems are ideal for measuring cell-based functional assays such as monitoring the intracellular calcium fluxes that occur within seconds after activation of the Gq coupled receptor.
# Briefly, the cells are seeded into 96 well at 5.5×10^4 cells/well with complete culture media (Dulbecco's Modified Eagle Medium with 10% fetal bovine serum, 2 mM L-glutamine, 1 mM sodium pyruvate and 0.5 mg/mL G418, pH 7.4) for the assay next day. On the day of assay, the media is removed and the cells are incubated with 100 μl of loading buffer (4 μM Fluo-4-AM in complete culture media containing 2.5 mM Probenicid, 0.5 mg/ml and 0.2% bovine serum albumin) in 5% CO2 incubator at 37° C. for 1 hr. The loading buffer is removed, and the cells are washed with wash buffer (Hank's Balanced Salt Solution containing 2.5 mM Probenicid, 20 mM HEPES, 0.5 mg/mL and 0.2% bovine serum albumin, pH 7.4). One hundred fifty μl of wash buffer containing various concentrations of test compound is added to the cells, and the cells are incubated in 5% CO2 incubator at 37° C. for 30 min. Fifty μl of wash buffer containing various concentration of MCH are added to each well, and transient changes in [Ca^2+]i evoked by MCH are monitored using the FLIPR or FDSS in 96 well plates at Ex. 488 nm and Em. 530 nm for 290 second. When antagonist activity of compound is tested, 50 nM of MCH is used.
# Use of FLIPR™ and FDSS6000™ can be accomplished by following manufacturer's instruction (Molecular Device Corporation and HAMAMATSU Photonics K.K.).
row,IC50 [nM],Structure (SMILES)
1,101,"Cc1nc(N[C@H]2CC[C@@H](NC(=O)c3ccc(F)cc3)CC2)cc(N(C)C)n1 [Example 7, N-(cis-4-{[6-(Dimethylamino)-2-methylpyrimidin-4-yl]amino}cyclohexyl)-4-fluorobenzamide hydrochloride]"

# Same assay, conditions: class by percent of control at 10^−7 M or by IC50; antagonist activity, 50 nM of MCH; read-out: class
row,Structure (SMILES),IC50 [nM]
1,"CN(C)c1cc(N[C@H]2CC[C@@H](NC(=O)c3ccc(F)c(Cl)c3)CC2)nc(C(F)(F)F)n1 [Example 47, 3-Chloro-N-(cis-4-{[6-(dimethylamino)-2-(trifluoromethyl)pyrimidin-4-yl]amino}cyclohexyl)-4-fluorobenzamide hydrochloride]",> 200
2,"Cc1nc(N[C@H]2CC[C@@H](NC(=O)c3ccc(C(F)(F)F)c(F)c3)CC2)cc(N(C)C)n1 [Example 15, N-(cis-4-{[6-(Dimethylamino)-2-methylpyrimidin-4-yl]amino}cyclohexyl)-3-fluoro-4-(trifluoromethyl)benzamide hydrochloride]",> 200
3,"Cc1nc(N[C@H]2CC[C@@H](NC(=O)c3ccc(F)cc3)CC2)cc(N(C)C)n1 [Example 7, N-(cis-4-{[6-(Dimethylamino)-2-methylpyrimidin-4-yl]amino}cyclohexyl)-4-fluorobenzamide hydrochloride]",50 to 200
4,"Cc1nc(N[C@H]2CC[C@@H](NC(=O)c3ccc(F)c(Cl)c3)CC2)cc(-n2ccnc2)n1 [Example 38, 3-Chloro-4-fluoro-N-(cis-4-{[6-(1H-imidazol-1-yl)-2-methylpyrimidin-4-yl]amino}cyclohexyl)-benzamide dihydrochloride]",> 200
5,"Cc1nc(N[C@H]2CC[C@@H](NC(=O)c3ccc(Cl)c(Cl)c3)CC2)cc(N(C)C)n1 [Example 8, 3,4-Dichloro-N-(cis-4-{[6-(dimethylamino)-2-methylpyrimidin-4-yl]amino}cyclohexyl)-benzamide hydrochloride]",< 50
6,"CNc1cc(N[C@H]2CC[C@@H](NC(=O)c3ccc(F)c(Cl)c3)CC2)nc(C)n1 [Example 31, 3-Chloro-4-fluoro-N-(cis-4-{[2-methyl-6-(methylamino)pyrimidin-4-yl]amino}cyclohexyl)-benzamide hydrochloride]",50 to 200
7,"Cc1nc(N[C@H]2CC[C@@H](NC(=O)c3cc(F)cc(F)c3)CC2)cc(N(C)C)n1 [Example 13, N-(cis-4-{[6-(Dimethylamino)-2-methylpyrimidin-4-yl]amino}cyclohexyl)-3,5-difluorobenzamide hydrochloride]",50 to 200
8,"Cc1nc(N[C@H]2CC[C@@H](NC(=O)c3cc(F)c(F)c(F)c3)CC2)cc(N(C)C)n1 [Example 11, N-(cis-4-{[6-(Dimethylamino)-2-methylpyrimidin-4-yl]amino}cyclohexyl)-3,4,5-trifluorobenzamide hydrochloride]",< 50
9,"CN(C)c1cc(NC[C@H]2CC[C@@H](NC(=O)c3ccc(F)c(F)c3)CC2)ncn1 [Example 3, N-[cis-4-({[6-(Dimethylamino)pyrimidin-4-yl]amino}methyl)cyclohexyl]-3,4-difluorobenzamide hydrochloride]",> 200
10,"CN(C)c1nccc(N[C@H]2CC[C@@H](NC(=O)c3ccc(F)c(Cl)c3)CC2)n1 [Example 44, 3-Chloro-N-(cis-4-{[2-(dimethylamino)pyrimidin-4-yl]amino}cyclohexyl)-4-fluorobenzamide hydrochloride]",< 50
11,"CN(C)c1cc(N[C@H]2CC[C@@H](NC(=O)c3ccc(F)c(F)c3)CC2)nc(N(C)C)n1 [Example 33, N-(cis-4-{[2,6-bis(Dimethylamino)pyrimidin-4-yl]amino}cyclohexyl)-3,4-difluorobenzamide hydrochloride]",50 to 200
12,"CN(C)c1cc(N[C@H]2CC[C@@H](CNC(=O)c3ccc(F)c(F)c3)CC2)ncn1 [Example 4, N-[(cis-4-{[6-(Dimethylamino)pyrimidin-4-yl]amino}cyclohexyl)methyl]-3,4-difluorobenzamide hydrochloride]",> 200
13,"Cc1nc(N[C@H]2CC[C@@H](NC(=O)c3cccc(C(F)(F)F)c3)CC2)cc(N(C)C)n1 [Example 17, N-(cis-4-{[6-(Dimethylamino)-2-methylpyrimidin-4-yl]amino}cyclohexyl)-3-(trifluoromethyl)-benzamide hydrochloride]",< 50
14,"Cc1nc(N[C@H]2CC[C@@H](NC(=O)c3cccc(F)c3)CC2)cc(N(C)C)n1 [Example 23, N-(cis-4-{[6-(Dimethylamino)-2-methylpyrimidin-4-yl]amino}cyclohexyl)-3-fluorobenzamide hydrochloride]",50 to 200

# Results, then the compound that gave them:
row,IC50 [nM],Structure (SMILES)
1,> 200,"Cc1nc(N[C@H]2CC[C@@H](NC(=O)c3ccc(F)c(Cl)c3)CC2)c(C)c(N(C)C)n1 [Example 180, 3-Chloro-N-(cis-4-{[6-(dimethylamino)-2,5-dimethylpyrimidin-4-yl]amino}cyclohexyl)-4-fluorobenzamide hydrochloride]"
2,> 200,"CCn1ccc2c(N[C@H]3CC[C@@H](NC(=O)c4ccc(F)c(Cl)c4)CC3)ncnc21 [Example 189, 3-Chloro-N-{cis-4-[(7-ethyl-7H-pyrrolo[2,3-d]pyrimidin-4-yl)amino]cyclohexyl}-4-fluorobenzamide hydrochloride]"
3,> 200,"Cc1nc(N[C@H]2CC[C@@H](C(=O)Nc3cc(Cl)cc(Cl)c3)CC2)cc(N(C)C)n1 [Example 195, cis-N-(3,5-Dichlorophenyl)-4-{[6-(dimethylamino)-2-methylpyrimidin-4-yl]amino}-cyclohexanecarboxamide hydrochloride]"
4,> 200,"Cc1nc(N[C@H]2CC[C@@H](NC(=S)Nc3ccc(F)c(Cl)c3)CC2)cc(N(C)C)n1 [Example 183, N-(3-Chloro-4-fluorophenyl)-N′-(cis-4-{[6-(dimethylamino)-2-methylpyrimidin-4-yl]amino}cyclohexyl)thiourea hydrochloride]"
5,> 200,"Cc1nc(N[C@H]2CC[C@@H](NC(=O)c3cc(F)c(F)c(F)c3)CC2)cc(N(C)Cc2ccccc2)n1 [Example 175, N-[cis-4-({6-[Benzyl(methyl)amino]-2-methylpyrimidin-4-yl}amino)cyclohexyl]-3,4,5-trifluorobenzamide hydrochloride]"
6,50 to 200,"Cn1ccc2c(N[C@H]3CC[C@@H](NC(=O)c4ccc(F)c(Cl)c4)CC3)ncnc21 [Example 187, 3-Chloro-4-fluoro-N-{cis-4-[(7-methyl-7H-pyrrolo[2,3-d]pyrimidin-4-yl)amino]cyclohexyl}-benzamide hydrochloride]"
7,> 200,"O=C(N[C@H]1CC[C@@H](Nc2ncnc3[nH]ccc23)CC1)c1ccc(F)c(Cl)c1 [Example 186, 3-Chloro-4-fluoro-N-[cis-4-(7H-pyrrolo[2,3-d]pyrimidin-4-ylamino)cyclohexyl]benzamide hydrochloride]"
8,> 200,"Cc1nc(N[C@H]2CC[C@@H](C(=O)Oc3ccc(F)c(F)c3)CC2)cc(N(C)C)n1 [Example 196, 3,4-Difluorophenyl cis-4-{[6-(dimethylamino)-2-methylpyrimidin-4-yl]amino}-cyclohexanecarboxylate hydrochloride]"
9,> 200,"Cc1nc(N[C@H]2CC[C@@H](NC(=O)c3ccc(F)c(Cl)c3)CC2)c(F)c(N(C)C)n1 [Example 181, 3-Chloro-N-(cis-4-{[6-(dimethylamino)-5-fluoro-2-methylpyrimidin-4-yl]amino}cyclohexyl)-4-fluorobenzamide hydrochloride]"
10,< 50,"Cc1nc(N[C@H]2CC[C@@H](C(=O)Nc3cc(F)c(F)c(F)c3)CC2)cc(N(C)C)n1 [Example 193, cis-4-{[6-(Dimethylamino)-2-methylpyrimidin-4-yl]amino}-N-(3,4,5-trifluorophenyl)-cyclohexanecarboxamide hydrochloride]"

# Reference: patent publication US20090036448A1, “PYRIMIDINE DERIVATIVES AND METHODS OF TREATMENT RELATED TO THE USE THEREOF” (TAISHO PHARMECUTICAL CO., LTD., priority 2004, published 2009)
